# Data published in PMC12796071, “Evaluation of [^18F]MNI-1054, a novel PET ligand for lysine-specific histone demethylase 1A (LSD1), in non-human primates” (EJNMMI Research, 2025).
# Columns and labels:
# [1] = target: LSD1 (Macaca mulatta, UniProt I2CUD2); experiment: PET imaging of the testes (baseline and TAK-418 blocking); details: baseline scan; M3
# Protocol: TAK-418 (3 mg/kg) was administered as an intravenous bolus over 5-min, starting 120 min prior to [^18F]MNI-1054 administration.
# [2] = Arterial plasma radiometabolite analysis (parent fraction) during PET; assay type: in vivo, rhesus monkeys (macaca mulatta); details: for parent fraction in arterial plasma: across baseline and blocking studies
# Protocol: All brain scans were collected over 3 h on a microPET Focus 220 PET scanner (Siemens), with injected doses in the range 167.61–185 MBq. A transmission scan with an external Germanium-68 source was performed prior to the emission scans to estimate attenuation correction coefficients. Discrete arterial blood samples (n = 18–21) were taken throughout the scans to measure the parent fraction, plasma free fraction as well as total plasma and whole-blood activity for tracer kinetic modeling. Detailed procedures are provided in the Supplement.
# To generate arterial input functions, [^18F]MNI-1054 parent fraction measurements in plasma were first fitted to a sum of decaying exponentials using the Levenberg-Marquardt algorithm. The total arterial plasma activity concentration measurements were then multiplied by the resulting continuous parent fractions to yield the final input functions for kinetic modeling.
# Arterial blood samples (1 mL or 3.5 mL) were drawn at 0.75, 1.5, 2.25, 3, 3.75, 4, 5, 6, 8, 10, 15, 20, 25, 30, 45, 60, 90, 120, 150, and 180 min post-injection to measure parent fraction, total plasma and whole blood activity. The larger samples were drawn for analysis of parent fraction. Aliquots of 200 µL of whole blood were counted in a gamma counter (Wallac 2480 Wizard^2® Automatic Gamma Counter, Perkin-Elmer, Waltham, Massachusetts) for 1 min (400-1400 keV window). All blood samples were centrifuged for 10 min at 3,000 g and the plasma separated. Aliquots of 200 µL of plasma were counted in the gamma counter for 1 min (400-1400 keV window).
# The fraction of unchanged radiotracer in plasma was determined by HPLC at selected time points. […] Sample vials and pellets were counted in the gamma counter for 1 min to calculate the extraction percentage. Gamma chromatograms were analyzed by integration of all radioactive peaks. The percentage of parent compound was calculated by dividing the area under the peak representing parent compound by the sum of the area of all radioactive peaks.
smiles,measurement,setting,value
Cc1cc([18F])ncc1C(=O)Nc1ccc([C@@H]2C[C@H]2NCC2CC2)cc1 [[^18F]MNI-1054],testes uptake (SUV),[1],~ 2
same,parent fraction in arterial plasma,[2]; 30 min post-injection,~ 42%
same,parent fraction in arterial plasma,[2]; 180 min post-injection,~ 14%
same,"parent fraction and parent-in-plasma activity concentration levels, higher in self-block study",[2]; self-block study (3 mg/kg cold MNI-1054) versus other studies,about 20%
